What was measured:
Test in all cases: relative viability (nuclei count vs DMSO), 5 days (fraction); higher = more cells survive
LCLC-103H = test system: LCLC-103H
How it was run: (§1)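 Values are medians from duplicate plates. Each reflects relative viability, defined as the nuclei count of treated wells over that of vehicle wells. Lung cancer cell lines in 1536-well plates were pin-tool dosed one day after seeding with one drug alone or with a fixed anchor-drug dose plus five library-drug doses (not always all listed) in √10 steps, then fixed, stained and imaged at 4× after 5 days.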

SK-MES-1 = test system: SK-MES-1
How it was run: as §1

LU99A = test system: LU99A
How it was run: as §1

LXF-289 = test system: LXF-289
How it was run: as §1

A-427 = test system: A-427
How it was run: as §1

NCI-H2347 = test system: NCI-H2347
How it was run: as §1

NCI-H358 = test system: NCI-H358
How it was run: as §1

NCI-H727 = test system: NCI-H727
How it was run: as §1

NCI-H1975 = test system: NCI-H1975
How it was run: as §1

NCI-H650 = test system: NCI-H650
How it was run: as §1

CAL-12T = test system: CAL-12T
How it was run: as §1

NCI-H1993 = test system: NCI-H1993
How it was run: as §1

COR-L 105 = test system: COR-L 105
How it was run: as §1

NCI-H2009 = test system: NCI-H2009
How it was run: as §1

NCI-H1395 = test system: NCI-H1395
How it was run: as §1

HOP-62 = test system: HOP-62
How it was run: as §1

NCI-H1666 = test system: NCI-H1666
How it was run: as §1

NCI-H460 = test system: NCI-H460
How it was run: as §1

BEN = test system: BEN
How it was run: as §1

EPLC-272H = test system: EPLC-272H
How it was run: as §1

NCI-H441 = test system: NCI-H441
How it was run: as §1

NCI-H1793 = test system: NCI-H1793
How it was run: as §1

Work on `Nc1cccc2c1CN(C1CCC(=O)NC1=O)C2=O` (stereo not drawn) [Lenalidomide] + C[C@]1(O)C[C@@H](c2nc(-c3ccc4ccc(-c5ccccc5)nc4c3)c3c(N)nccn32)C1 [Linsitinib] (partner 1 µM) yielded a relative viability (LCLC-103H; first compound 0.253 µM) of 1.11, a relative viability (LCLC-103H; first compound 0.8 µM) of 1.09 and a relative viability (LCLC-103H; first compound 2.53 µM) of 1.05. The relative viability (LCLC-103H; first compound 8 µM) was 0.86, the relative viability (SK-MES-1; first compound 0.253 µM) was 1.05 and the relative viability (SK-MES-1; first compound 0.8 µM) was 1.03. For the same compound, the relative viability (SK-MES-1; first compound 2.53 µM) was 1.13, the relative viability (SK-MES-1; first compound 8 µM) was 0.979 and the relative viability (LU99A; first compound 0.253 µM) was 0.51. The relative viability (LU99A; first compound 0.8 µM) was 0.554, the relative viability (LU99A; first compound 2.53 µM) was 0.466 and the relative viability (LU99A; first compound 8 µM) was 0.352. The relative viability (LXF-289; first compound 0.253 µM) was 0.961, the relative viability (LXF-289; first compound 0.8 µM) was 0.994 and the relative viability (LXF-289; first compound 2.53 µM) was 1.01. The relative viability (LXF-289; first compound 8 µM) was 1.03, the relative viability (A-427; first compound 0.253 µM) was 1.12 and the relative viability (A-427; first compound 2.53 µM) was 1.11. It also gave a relative viability (A-427; first compound 8 µM) of 1.1, a relative viability (NCI-H2347; first compound 0.253 µM) of 0.952 and a relative viability (NCI-H2347; first compound 0.8 µM) of 1.03. The relative viability (NCI-H2347; first compound 2.53 µM) was 1, the relative viability (NCI-H2347; first compound 8 µM) was 0.808 and the relative viability (NCI-H358; first compound 0.253 µM) was 0.751. For the same compound, the relative viability (NCI-H358; first compound 0.8 µM) was 0.752, the relative viability (NCI-H358; first compound 2.53 µM) was 0.773 and the relative viability (NCI-H358; first compound 8 µM) was 0.703. It also gave a relative viability (NCI-H727; first compound 0.253 µM) of 0.311, a relative viability (NCI-H727; first compound 2.53 µM) of 0.308 and a relative viability (NCI-H727; first compound 8 µM) of 0.288. For the same compound, the relative viability (NCI-H1975; first compound 0.253 µM) was 1.15, the relative viability (NCI-H1975; first compound 0.8 µM) was 1 and the relative viability (NCI-H1975; first compound 2.53 µM) was 1.2. The relative viability (NCI-H1975; first compound 8 µM) was 1.12, the relative viability (NCI-H650; first compound 0.253 µM) was 0.929 and the relative viability (NCI-H650; first compound 2.53 µM) was 1. The relative viability (NCI-H650; first compound 8 µM) was 0.727, the relative viability (CAL-12T; first compound 0.253 µM) was 0.821 and the relative viability (CAL-12T; first compound 0.8 µM) was 0.83. The relative viability (CAL-12T; first compound 2.53 µM) was 1.15, the relative viability (CAL-12T; first compound 8 µM) was 0.787 and the relative viability (NCI-H1993; first compound 0.253 µM) was 0.708. It also gave a relative viability (NCI-H1993; first compound 0.8 µM) of 0.706, a relative viability (NCI-H1993; first compound 2.53 µM) of 0.73 and a relative viability (NCI-H1993; first compound 8 µM) of 0.708. It also gave a relative viability (COR-L 105; first compound 0.253 µM) of 0.839, a relative viability (COR-L 105; first compound 0.8 µM) of 0.774 and a relative viability (COR-L 105; first compound 2.53 µM) of 0.738. The relative viability (COR-L 105; first compound 8 µM) was 1.12, the relative viability (NCI-H2009; first compound 0.253 µM) was 1.19 and the relative viability (NCI-H2009; first compound 0.8 µM) was 1.16. For the same compound, the relative viability (NCI-H2009; first compound 2.53 µM) was 1.24, the relative viability (NCI-H2009; first compound 8 µM) was 1.25 and the relative viability (NCI-H1395; first compound 0.253 µM) was 0.968. For the same compound, the relative viability (NCI-H1395; first compound 2.53 µM) was 1.23, the relative viability (NCI-H1395; first compound 8 µM) was 1.03 and the relative viability (HOP-62; first compound 0.253 µM) was 0.89. It also gave a relative viability (HOP-62; first compound 0.8 µM) of 0.969, a relative viability (HOP-62; first compound 2.53 µM) of 0.837 and a relative viability (HOP-62; first compound 8 µM) of 0.918. It also gave a relative viability (NCI-H1666; first compound 0.253 µM) of 0.921, a relative viability (NCI-H1666; first compound 0.8 µM) of 0.652 and a relative viability (NCI-H1666; first compound 2.53 µM) of 0.853. The relative viability (NCI-H1666; first compound 8 µM) was 0.833, the relative viability (NCI-H460; first compound 0.253 µM) was 0.777 and the relative viability (NCI-H460; first compound 0.8 µM) was 0.821. It also gave a relative viability (NCI-H460; first compound 2.53 µM) of 1.25, a relative viability (NCI-H460; first compound 8 µM) of 0.622 and a relative viability (BEN; first compound 0.253 µM) of 1.03. The relative viability (BEN; first compound 0.8 µM) was 0.861, the relative viability (BEN; first compound 2.53 µM) was 1.09 and the relative viability (BEN; first compound 8 µM) was 0.781. It also gave a relative viability (EPLC-272H; first compound 0.253 µM) of 1.24, a relative viability (EPLC-272H; first compound 2.53 µM) of 1.11 and a relative viability (EPLC-272H; first compound 8 µM) of 0.843. For the same compound, the relative viability (NCI-H441; first compound 0.253 µM) was 0.547, the relative viability (NCI-H441; first compound 0.8 µM) was 0.345 and the relative viability (NCI-H441; first compound 2.53 µM) was 0.692. The relative viability (NCI-H441; first compound 8 µM) was 0.555, the relative viability (NCI-H1793; first compound 0.253 µM) was 1.02 and the relative viability (NCI-H1793; first compound 0.8 µM) was 0.728. It also gave a relative viability (NCI-H1793; first compound 2.53 µM) of 1.13 and a relative viability (NCI-H1793; first compound 8 µM) of 0.512.

Reference: the supplement of paper PMC10307832
